Like-named read-outs stand apart in the source and are kept apart here. Values belong to the molecule of their own block, whether it stands above or below them.
Legend:
[1] = Pharmacokinetics of M1 in rat bile after P.O. and I.V. administration of Antrodin C (PAD-HPLC); conditions: for Accumulated excretion ratio: rat bile
Protocol: (§1) Male Wistar rats (9 weeks old) purchased from SLC Co. (Hamamastu, Japan), were fed with standard laboratory chow for one week, fasted overnight and given free access to water before drug administration. […] The animals were light anesthetized with diethyl ether during surgical procedures. Bile samples (n=5) was collected by cannulating a polyethylene tube (PE-10) into the rat bile duct at intervals of 0, 0.25, 0.5, 1, 2, 4, 8, 12, 24, 36 and 48 h after oral (50 mg/kg) and intravenous (10 mg/kg) administration of Antrodin C. […] The blood samples were centrifuged at 8000×g for 15 min to separate the plasma, and then all samples were stored at −20° C. for later analysis.
(§2) Thawed urine and bile samples (0.5 ml) dissolved in 3 volumes of acetonitrile, and then centrifuged at 8000×g for 15 min. The supernatant was passed through a 0.45 μm Millipore syringe filter (Nihon Millipore, Tokyo, Japan) for LC/MS-MS analysis. […] After treating the bile sample as described above, the amount of M1 was calculated by PAD-HPLC.
(§3) The concentration-time data in rat bile (n=5) were computer fitted using a program of Pharmacokineitics 3p97 edited by the Mathematics Pharmacological Committee, Chinese Pharmacological Society. The following pharmacokinetic parameters were obtained: half-time of absorption phase (t1/2 (Kα)) and half-time of elimination phase (t1/2 (Kβ)) in the bile samples after oral administration of Antrodin C at the dose of 50 mg/kg. The area under the concentration-time curve (AUC(i.v.) and AUC(p.o.)) was calculated by the statistical moment method of non-compartmental pharmacokinetic analysis. And then clearance (Clm, b) and absolute bioavailability (Fm, b) were calculated by the equations as following: Clm, b (ml/h·kg)=Dose(i.v.)/AUC(i.v.) and Fm, b (%)=AUC(p.o.)·Dose(i.v.)/[AUC(i.v.)·Dose(p.o.)]. Data were expressed mean and standard deviation (S.D.) for each group.

LLC cells = conditions: cited from earlier work
[2] = Identification of metabolites in rat feces, bile, plasma and urine by LC/MS-MS after administration of Antrodin C; format: in vivo
Protocol: The metabolites in feces, bile and plasma were analyzed by LC/MS-MS. The LC/MS-MS equipment comprised a column containing TSK gel ODS-80 Ts (particle size, 5 μm; 4.6×150 mm i.d., Tosoh Co., Tokyo, Japan). Samples were eluted through the column with 0.1% AcOH and acetonitrile (35:65) at a flow rate of 1 ml/min at 30° C. The standard negative ion mode was selected under the following conditions: full scan range, 50-800 m/z; scan resolution, 13000 m/z/sec; nebulizer, 50.0 psi; dry gas, 10.0 l/min; dry temperature, 360° C. Full scanning in the region of m/z 50 to 600 assigned several peaks to Antrodin C and the metabolites in the […] when compared with those of blank samples (FIG. 3). […] Comparing to standard materials and synthesized compounds, the peak in the MS profile at m/z 328 [M-H]^− with retention time (tR)=8.2 min was derived from Antrodin C (MW 329), and M1 (m/z 331 [M-H]^−, tR=4.4 min) was dicarboxylic acid by hydrolysis of Antrodin C; M2 and M3 (m/z 345 [M-H]^−, tR=7.7 and 8.4 min), which were 14 larger than those of M1, were two kinds of monomethyl esters of M1; M4 (m/z 313 [M-H]^−, tR=21.6 min) was Antrodin A and M5 (m/z 312 [M-H]^−, tR=11.5 min) was Antrodin B. The structures of Antrodin C and its metabolites were shown in FIG. 5.

[3] = tested on: hepatitis model induced by LPS; assay: Hepatitis model induced by LPS; conditions: in vivo
[4] = tested on: rat (RIB) or human (HIB) intestinal bacteria; assay: Metabolism of Antrodin C and metabolites by intestinal bacteria in vitro; format: in vitro ADME
Protocol: Mixtures of rat (RIB) or human (HIB) intestinal bacteria (5 g each) prepared as described (Xie L H, et al. 2003 Biol Pharm Bull 51: 378-384), together with Antrodin C (5 mg) dissolved in Tween 20 (0.5 ml), M1 (5 mg) dissolved in water (1.0 ml) or rat bile samples (10 ml) with metabolites M2-M4, which were collected after oral administration of Antrodin C, were added to GAM broth (50 ml), and anaerobically incubated at 37° C. for 3 d. The incubation mixture was extracted with 3 volumes of acetonitrile, and then passed through a 0.45 μm filter. […] Moreover, the metabolites (M2-M4) in bile samples, which were collected after oral administration of Antrodin C in rats, could absolutely transferred to M1 after 30 min incubation.

in vivo = conditions: male, Wistar, rat
Protocol: as §1, §2, §3

[5] = Conversion of metabolites in bile samples diluted with water and incubated at 37° C.; format: physicochemical; conditions: bile diluted by same volume water, 37° C. bath for 12 h
Protocol: as §2

Accumulated excretion ratio ([1]; I.V. 10 mg/kg Antrodin C): 56.85±13.40
Accumulated excretion ratio ([1]; P.O. 50 mg/kg Antrodin C): 5.46±1.62%
Main excretion pathway ([1]; rats): bile-feces pathway
Metabolites found in feces ([2]; rat feces after administration of Antrodin C): M1-M3, M5 with original Antrodin C
Metabolites found in plasma ([2]; rat plasma after administration of Antrodin C): M1 with another unknown peak
Metabolites found in urine ([2]; rat urine after administration of Antrodin C): neither metabolite nor Antrodin C
Metabolism by intestinal bacteria [4]: converted to M5
SMILES: CC(C)=CCOc1ccc(C2=C(CC(C)C)C(=O)N(O)C2=O)cc1 [Antrodin C]
Cytotoxic activity against LLC cells (LLC cells): confirmed
Effect against hepatitis model induced by LPS [3]: protective effect

Conversion in diluted bile [5]: thoroughly converted to M1
SMILES: COC(=O)/C(=C(/CC(C)C)C(=O)O)c1ccc(OCC=C(C)C)cc1 [M2, (2Z)-2-isobutyl-3-{4-[(3-methylbut-2-en-1-yl)oxy]phenyl}but-2-enedioic acid 4-methyl ester]

Conversion in diluted bile [5]: thoroughly converted to M1
SMILES: COC(=O)/C(CC(C)C)=C(\C(=O)O)c1ccc(OCC=C(C)C)cc1 [M3, (2Z)-2-isobutyl-3-{4-[(3-methylbut-2-en-1-yl)oxy]phenyl}but-2-enedioic acid 1-methyl ester]

The next lines start with the molecule.

SMILES: CC(C)=CCOc1ccc(/C(C(=O)O)=C(\CC(C)C)C(=O)O)cc1 [M1, (2Z)-2-isobutyl-3-{4-[(3-methylbut-2-en-1-yl)oxy]-phenyl}but-2-enedioic acid]
bioavailability (in vivo): 19.4%
AUC (in vivo; iv, 10 mg/kg): 1680 µg·h/mL
clearance (in vivo; iv, 10 mg/kg): 5.96 mL/h/kg
AUC (in vivo; po, 50 mg/kg): 1610 µg·h/mL
half-life (in vivo; po, 50 mg/kg, t1/2 (kα), half-time of absorption phase): 0.95 h
half-life (in vivo; po, 50 mg/kg, t1/2 (kβ), half-time of elimination phase): 12.6 h
Metabolism by intestinal bacteria ([4]; GAM broth, anaerobic incubation at 37° C. for 3 d): not metabolized

SMILES: CC(C)=CCOc1ccc(C2=C(CC(C)C)C(=O)OC2=O)cc1 [M4, Antrodin A]
Conversion in diluted bile [5]: thoroughly converted to M1

SMILES: CC(C)=CCOc1ccc(C2=C(CC(C)C)C(=O)NC2=O)cc1 [M5, Antrodin B]
Cytotoxic activity against LLC cells (LLC cells): confirmed

— patent US8101792B2, “Compounds isolated from Antrodia cinnamomea and use thereof” (Simpson Biotech Co., Ltd., priority 2007, dated 2012)
